Results as given in PubChem BioAssay (NCI).
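Growth conditions: 96-well plates. Treatment: test compound, 48 hours, 5 concentrations. Analysis: linear interpolation between bracketing concentrations; unreached endpoints set to highest concentration. GI50 is the concentration that inhibits growth by half. The concentration for full growth arrest is given as TGI.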

Legend:
Experiment in all cases: NCI tumour cell line growth inhibition, 48 h
[1] = system: A549 NSCLC
[2] = system: ACHN renal
[3] = system: CCRF-CEM leukemia
[4] = system: HCT-15 colon
[5] = system: MDA-MB-435
[6] = system: NCI-H226 lung
[7] = system: NCI-H460 lung
[8] = system: SK-MEL-28 melanoma
[9] = system: SW-620 colon
[10] = system: UACC-257 melanoma

SMILES	GI50 [1]	TGI [1]	GI50 [2]	TGI [2]	GI50 [3]	TGI [3]	GI50 [4]	TGI [4]	GI50 [5]	TGI [5]	GI50 [6]	TGI [6]	GI50 [7]	TGI [7]	TGI [8]	GI50 [9]	TGI [9]	GI50 [10]	TGI [10]	GI50 [8]
NC(=O)c1cc(S(=O)(=O)Nc2nnc(-c3ccccc3)c(-c3ccccc3)n2)c(SCc2ccccc2)cc1Cl	> 100 µM	> 100 µM	> 100 µM	> 100 µM	> 50.4 µM	> 82.3 µM	> 88.3 µM	> 100 µM	> 53.4 µM	> 100 µM	> 46.9 µM	> 69.4 µM	> 46.2 µM	> 83.1 µM	> 100 µM	> 56.1 µM	> 100 µM	> 48.2 µM	> 89.9 µM	
c1ccc2nc3c(nc2c1)sc1ccccc13		> 100 µM		35.7 µM		> 100 µM		> 100 µM		> 100 µM		66.8 µM		43.6 µM	> 100 µM		> 100 µM		> 100 µM	
COc1ccc(-c2ccc(-c3ccc(C(=N)N)s3)s2)cc1	0.195 µM	0.393 µM	0.19 µM	0.359 µM	0.208 µM	0.485 µM	0.195 µM	0.415 µM	0.179 µM	0.336 µM	2.06 µM	5.15 µM	0.192 µM	0.364 µM	0.348 µM	0.18 µM	0.353 µM	0.746 µM	1.68 µM	0.187 µM
CCN(Cc1ccccc1C)c1ccc(CO)c(Cl)c1	6.63 µM	27.9 µM	15.7 µM	39.4 µM	15.5 µM	38.2 µM	8.57 µM	29.3 µM	3.67 µM	15.4 µM	0.0375 µM	0.201 µM	0.821 µM	12.7 µM	27.8 µM	3.74 µM	18.5 µM	0.278 µM	1.67 µM	13.2 µM
O=C(Nc1ccc(F)cc1)c1cc(S(=O)(=O)Nc2nc3ccccc3o2)c(SCc2ccccc2)cc1Cl	18.3 µM	38.4 µM	17.5 µM	32.2 µM	12.9 µM	31.2 µM	15.8 µM	30.1 µM	16.3 µM	30.7 µM	12.1 µM	28.4 µM	19.1 µM	43.5 µM	58.2 µM	17.6 µM	33.3 µM	13.5 µM	28.4 µM	25.8 µM
